Structure (SMILES)	melting point [°C]
N[C@]1(C(=O)O)[C@H]2[C@@H](C[C@H]1SCc1c(F)ccc(Cl)c1F)[C@]2(F)C(=O)O [Compound 13, (1R,2S,3R,5R,6R)-2-amino-3-(3-chloro-2,6-difluorobenzylsulfanyl)-6-fluorobicyclo[3.1.0]hexane-2,6-dicarboxylic acid]	> 234
N[C@]1(C(=O)O)[C@H]2[C@@H](C[C@H]1SCc1ccc3ccccc3c1Br)[C@]2(F)C(=O)O [Compound 7, (1R,2S,3R,5R,6R)-2-amino-3-(1-bromo-naphthalene-2-ylmethylsulfanyl)-6-fluorobicyclo[3.1.0]hexane-2,6-dicarboxylic acid]	> 280
N[C@]1(C(=O)O)[C@H]2[C@@H](C[C@H]1NCc1ccc(Cl)c(Cl)c1)[C@]2(F)C(=O)O [Compound 18, (1R,2R,3R,5R,6R)-2-amino-3-(3,4-dichlorobenzylamino)-6-fluorobicyclo[3.1.0]hexane-2,6-dicarboxylic acid]	> 190
N[C@]1(C(=O)O)[C@@H]2[C@@H](C[C@H]1SCc1ccc(Cl)c(Cl)c1)[C@H]2C(=O)O [Compound 8, (1R,2S,3R,5R,6R)-2-amino-3-(3,4-dichlorobenzylsulfanyl)-bicyclo[3.1.0]hexane-2,6-dicarboxylic acid]	> 289
CC(C)(C)c1ccc(CS[C@@H]2C[C@@H]3[C@H]([C@]2(N)C(=O)O)[C@@]3(F)C(=O)O)cc1 [Compound 5, (1R,2S,3R,5R,6R)-2-amino-3-(4-t-butylbenzylsulfanyl)-6-fluorobicyclo[3.1.0]hexane-2,6-dicarboxylic acid]	> 271
N[C@]1(C(=O)O)[C@H]2[C@@H](C[C@H]1SCc1ccccc1-c1ccccc1)[C@]2(F)C(=O)O [Compound 2, (1R,2S,3R,5R,6R)-2-amino-3-(2-phenylbenzylsulfanyl)-6-fluorobicyclo[3.1.0]hexane-2,6-dicarboxylic acid]	> 230
N[C@]1(C(=O)O)[C@H]2[C@@H](C[C@H]1SC(c1ccc(F)cc1)c1ccc(F)cc1)[C@]2(F)C(=O)O [Compound 16, (1R,2S,3R,5R,6R)-2-amino-3-[bis-(4-fluorophenyl)methylsulfanyl]-6-fluorobicyclo[3.1.0]hexane-2,6-dicarboxylic acid]	> 243
N[C@]1(C(=O)O)[C@H]2[C@@H](C[C@H]1SCc1cccs1)[C@]2(F)C(=O)O [Compound 1, (1R,2S,3R,5R,6R)-2-amino-3-(thiophene-2-ylmethylsulfanyl)-6-fluorobicyclo[3.1.0]hexane-2,6-dicarboxylic acid]	> 230
N[C@]1(C(=O)O)[C@H]2[C@@H](C[C@H]1SCc1cccc(C(F)(F)F)c1)[C@]2(F)C(=O)O [Compound 6, (1R,2S,3R,5R,6R)-2-amino-3-(3-trifluoromethylbenzylsulfanyl)-6-fluorobicyclo[3.1.0]hexane-2,6-dicarboxylic acid]	> 271
N[C@]1(C(=O)O)[C@H]2[C@@H](C[C@H]1Sc1ccc(Cl)c(Cl)c1)[C@]2(F)C(=O)O [Compound 12, (1R,2S,3R,5R,6R)-2-amino-3-(3,4-dichlorophenylsulfanyl)-6-fluorobicyclo[3.1.0]hexane-2,6-dicarboxylic acid]	> 235
COc1ccc(CS[C@@H]2C[C@@H]3[C@H]([C@]2(N)C(=O)O)[C@@]3(F)C(=O)O)cc1 [Compound 3, (1R,2S,3R,5R,6R)-2-amino-3-(4-methoxybenzylsulfanyl)-6-fluorobicyclo[3.1.0]hexane-2,6-dicarboxylic acid]	> 240
CC(S[C@@H]1C[C@@H]2[C@H]([C@]1(N)C(=O)O)[C@@]2(F)C(=O)O)c1ccccc1 (stereo partly drawn) [Compound 15, (1R,2S,3R,5R,6R)-2-amino-3-(1-phenyl-ethylsulfanyl)-6-fluorobicyclo[3.1.0]hexane-2,6-dicarboxylic acid]	> 307
N[C@]1(C(=O)O)[C@H]2[C@@H](C[C@H]1SCc1ccc(Cl)c(Cl)c1)[C@]2(F)C(=O)O [Compound 9, (1R,2S,3R,5R,6R)-2-amino-3-(3,4-dichlorobenzylsulfanyl)-6-fluorobicyclo[3.1.0]hexane-2,6-dicarboxylic acid]	> 220
N[C@@H]1C[C@@H]2[C@H]([C@]1(N)C(=O)O)[C@@]2(F)C(=O)O [Compound 17, (1R,2R,3R,5R,6R)-2,3-diamino-6-fluorobicyclo[3.1.0]hexane-2,6-dicarboxylic acid]	> 256
N[C@]1(C(=O)O)[C@H]2[C@@H](C[C@H]1SCc1ccc(F)cc1)[C@]2(F)C(=O)O [Compound 4, (1R,2S,3R,5R,6R)-2-amino-3-(4-fluorobenzylsulfanyl)-6-fluorobicyclo[3.1.0]hexane-2,6-dicarboxylic acid]	> 243

From patent publication US7381746B2, “2-Aminobicyclo[3.1.0]hexane-2,6-dicarboxylic acid derivative” (Taisho Pharmaceutical Co., Ltd., priority 2003, dated 2008)
